Structures are written as SMILES. Where “and” joins values, the source holds several entries; their conditions need not be identical. Identical values can stand only once.

Results on six molecules are retold here after US4250162A, “Protein binding method” (priority 1979, dated 1981).

Assay [1] deals with diphenylhydantoin rabbit antiserum. Kind of assay: Effect of organic solvents on antiserum-coated polypropylene tubes: residual binding of radioiodinated tracer, diphenylhydantoin antiserum. As to conditions: tracer bound after solvent 3 hours at 50° C., tracer 45 minutes at 37° C. The procedure:
(§1) 1 ml of petroleum ether, benzene, ether, ethyl acetate or acetone was added to a selection of cortisol, thyroxine, diphenylhydantoin and estriol rabbit antiserum-coated polypropylene tubes. The solvent level in the tubes was sufficient to immerse the antiserum coated region at the bottom of the tubes. The solvents were equilibrated with atmospheric water vapor. The solvent-containing tubes were then incubated for 3 hours at 50° C. The excess solvent was poured off and the tubes were left overnight to allow the residual solvent to evaporate. Three sets of control tubes were prepared. One set was treated with water in the same manner as the organic solvents, while another set was heated in air for the same period as the liquid-treated tubes. A final set of tubes served as an untreated control. The residual capacity of the antiserum-coated tubes to bind the respective radioiodinated tracers was determined by adding a 1 ml solution of the tracer containing 0.01 μCi to each tube containing an antiserum coating specific for that tracer, incubating for 45 minutes at 37° C., carefully decanting the tracer solution and counting the radioactivity bound to the tubes. The percent binding was calculated by dividing the bound counts by the total counts added.

In assay [2] the test system is cortisol rabbit antiserum. Description: Effect of organic solvents on antiserum-coated polypropylene tubes: residual binding of radioiodinated tracer, cortisol antiserum. The settings on record: tracer bound after solvent 3 hours at 50° C., tracer 45 minutes at 37° C. How it is done:
as §1

Assay [3] concerns thyroxine rabbit antiserum. Kind of assay: Effect of organic solvents on antiserum-coated polypropylene tubes: residual binding of radioiodinated tracer, thyroxine antiserum. The settings on record: tracer bound after solvent 3 hours at 50° C., tracer 45 minutes at 37° C. How it is done: as §1
The test system of assay [4] is rabbit anti-cortisol serum. Kind of assay: Competitive radioimmunoassay of cortisol in antiserum-coated plastic tubes (125I-cortisol tracer). The class given is binding. How it is done:
Urine samples are prepared for extraction by adding 200 microliters of a well mixed 24-hour urine sample to each of two disposable glass test tubes, one marked "S" and the other "E". The "E" tube is to be used to determine the efficiency of cortisol extraction from the sample. 10 microliters of cortisol standard serum (60 μg%) are mixed with the contents of the "E" tube, and 1.0 ml of chilled methylene chloride is then added to all tubes. The tubes are capped and their contents agitated to aid in the extraction of cortisol into the methylene chloride layer. After separation of the organic phase, duplicate 100 microliter aliquots of the bottom (methylene chloride) layer of each "S" and "E" tube are carefully removed and added to corresponding plastic test tubes coated with rabbit anti-cortisol serum on their lower inner surfaces, also correspondingly labeled "S" and "E". The methylene chloride is then evaporated from the four plastic test tubes by passing a stream of dry air or nitrogen into the tubes or by a mild warming of the extract to about 37° C. The tubes containing dry cortisol residue as prepared above are then assayed as follows.
A set of plastic test tubes coated with rabbit anti-cortisol serum is numbered 1-12. The "S" and "E" tubes from the preparatory steps above are numbered 13-14 and 15-16, respectively. 0.01 ml of the reagents shown in Table 1 below are added to the designated tubes. The cortisol serum blank which is added to each "S" and "E" tube ensures that the protein content of all tubes is equal.
1.0 ml of ^125 I-Cortisol 3-(0-carboxymethyl)oxime-L-tyrosine in pH 7.0-7.2 phosphate buffered saline having an activity of about 0.033 μCi/ml is added to each tube with gentle mixing. All tubes are incubated in a constant temperature water bath for 45 minutes at 37° C. The contents are removed from the tubes by aspirating or decanting and the tubes counted in a gamma counter with the window suitably adjusted for iodine-125.

For another assay, the system named is estriol rabbit antiserum. Kind of assay: Effect of organic solvents on antiserum-coated polypropylene tubes: residual binding of radioiodinated tracer, estriol antiserum. As to conditions: tracer bound after solvent 3 hours at 50° C., tracer 45 minutes at 37° C. The procedure:
as §1

The next assay relates to antitestosterone. Kind of assay: Standard curve for testosterone in antitestosterone-coated polypropylene tubes. The settings on record: serum standards 0.1, 0.3, 1, 3 and 10 ng testosterone/ml, ethyl acetate extraction; 45 minutes at 37° C.; semi-logarithmic plot. In kind it is binding. How it is done: 0.6 ml of serum standards containing 0.1, 0.3, 1, 3 and 10 ng testosterone/ml were mixed with 3 ml of ethyl acetate. The phases were allowed to separate and 0.5 of the ethyl acetate layer was added to each of duplicate antitestosterone-coated tubes. After the ethyl acetate was evaporated under a stream of nitrogen, 1 ml of phosphate buffered saline at pH 7.4 was added to each tube and the testosterone residue dissolved. Five minutes later 0.1 ml of ^125 I-labeled testosterone tracer was added to each tube. After incubation for 45 minutes at 37° C., the solution was aspirated from each tube and the bound radioactivity determined in conventional fashion. […] The plot was satisfactory for use in the assay of testosterone unknowns.

`CC(C)=O` [Acetone, acetone]: the “% Binding” value in assay [1] is reported as 43%; in assay [2], 55%; in assay [3], 36%.
On to `c1ccccc1` [Benzene, benzene], for which the “% Binding” value in assay [1] came out at 34%; in assay [2] it was 56%; in assay [3], 52%.
As for `C[C@]12CCC(=O)C=C1CC[C@@H]1[C@@H]2[C@@H](O)C[C@@]2(C)[C@H]1CC[C@]2(O)C(=O)CO` [Cortisol, cortisol], the “CPM Bound” value in assay [4] (Cortisol Serum Standard, 1.0 μg%, 100 pg/0.01 ml, 45 minutes at 37° C.) was 26,030 CPM and 25,305 CPM; in assay [4] (Cortisol Serum Standard, 3.0 μg%, 300 pg/0.01 ml, 45 minutes at 37° C.), 22,083 CPM and 21,629 CPM; in assay [4] (Cortisol Serum Standard, 10 μg%, 1000 pg/0.01 ml, 45 minutes at 37° C.) it was 14,520 CPM and 14,698 CPM; in assay [4] (Cortisol Serum Standard, 25 μg%, 2000 pg/0.01 ml, 45 minutes at 37° C.), 8,980 CPM and 9,071 CPM; in assay [4] (Cortisol Serum Standard, 60 μg%, 6000 pg/0.01 ml, 45 minutes at 37° C.), 4,824 CPM and 5,025 CPM; in assay [4] (urine extract "E" tubes 15-16 (cortisol-spiked), with Cortisol Serum Blank, 0 μg%) it was 8,009 CPM and 7,526 CPM. Moreover, the “CPM Bound” value in assay [4] (urine extract "S" tubes 13-14, with Cortisol Serum Blank, 0 μg%) was 14,325 CPM and 15,110 CPM.
With `CCOCC` [Ether, ether], the “% Binding” value in assay [1] stood at 33%; in assay [2], 55%; with estriol rabbit antiserum, 38%; in assay [3], 41%.
Regarding `CCOC(C)=O` [Ethyl Acetate, ethyl acetate], the “% Binding” value in assay [1] is 38%; in assay [2] it was 54%; in the assay on estriol rabbit antiserum, 62%; in assay [3], 41%.
In the case of `C[C@]12CC[C@H]3[C@@H](CCC4=CC(=O)CC[C@@]43C)[C@@H]1CC[C@@H]2O` [testosterone], the “standard curve (bound radioactivity), in words” value in the assay with antitestosterone is “virtually straight-line standard curve”.
